Source: PubChem BioAssay AID1918996 (Molecular Pharmacology Branch, DTP, NCI, 2023)
pIC50: −log10 of the molar value. One block for each molecule: values may come before it.

System: 349418-098-R-PDC complex spheroid growth
Experiment: Anticancer human tumor 349418-098-R-PDC patient-derived lung adenocarcinoma cell line growth inhibition [AhR]
Conditions: for pIC50: curve of first compound; for viability, T/C: stronger effect = lower value
From the text: Multicellular complex tumor spheroid response to aryl hydrocarbon receptor antagonists in combination with a variety of drugs and investigational agents in selected tumor cell lines
The current study was undertaken to assess response to aryl hydrocarbon receptor antagonists in combination with standard-of-care drugs and investigational agents in solid tumor complex spheroid models. Complex spheroids include a stromal component modeled by human endothelial cells (HUVEC) and fibroblasts modeled by human mesenchymal stem cells (MSCs). The concentration ranges selected for each drug and investigational agent were based upon clinically achievable concentrations if the clinical Cmax of the agent was known.
Compounds. The drugs and investigational agents: BAY 2416964 (NSC825713), GNF351 (NSC835774), CH-223191 (NSC835775), CPI-455 (NSC825282), aza-TdCyd (NSC777586), decitabine (NSC127716), belinostat (NSC758774), entinostat (NSC756642), pevonedistat (NSC761192), tazemetostat (NSC777109), talazoparib (NSC765396), olaparib (NSC753686), selinexor (NSC780203), nedisertib (M3814, NSC802822), bortezomib (NSC756655), venetoclax (NSC766270), doxorubicin (NSC123127), elimusertib (BAY189344, NSC800525), ceralasertib (AZD6738, NSC777638), TAK-243 (NSC785004), alisertib (NSC759677), etoposide (NSC141540), topotecan (NSC609699), eribulin (NSC707389), gemcitabine (NSC613327), carboplatin (NSC241240), cisplatin (NSC119875), and SN-38 (NSC673596) were obtained from the National Cancer Institute (NCI) Developmental Therapeutics Program Chemical Repository (32). The FDA-approved anticancer drug set is available from the Developmental Therapeutics Program at https://dtp.cancer.gov/organization/dscb/obtaining/available plates.htm. […] The stock solutions were prepared in dimethyl sulfoxide (DMSO, Sigma-Aldrich, St. Louis, MO, cat. D2650), except for the platinum compounds which were prepared in saline (Quality Biological, Gaithersburg, MD, cat. 114-055-101), at 800-fold the tested concentration and stored at -70 degrees C prior to their use. All drugs and investigational agents were tested over a range starting from a high concentration at or near the clinical Cmax and decreasing in half-log increments. If the clinical Cmax for an agent had not been determined, the highest concentration tested was 10 microM (Table 1).
Cell Culture. All cells were maintained in an incubator at 37 degrees C and 5% CO2 with 95% humidity. The PDC lines were cultured according to standard operating procedures established by the NCI PDMR (https://pdmr.cancer.gov). Briefly, all PDCs were thawed and cultured in Matrigel-coated flasks prepared with a working solution of 1X Ham's F-12 nutrient mix, without supplementation (Invitrogen, Waltham, MA, cat. 11765054), 100 U/mL penicillin-streptomycin (Invitrogen, cat. 15140122), and 2.5% Matrigel (Corning Inc., Corning, NY, cat. 354248) for the first three passages. All PDCs were cultured in complete DMEM/F-12 media containing advanced DMEM/F-12 (Invitrogen, cat. 12634028), 4.9% defined fetal bovine serum, heat inactivated (HyClone Laboratories Inc., Logan, UT, cat. SH30070.03HI), 389 ng/mL hydrocortisone (Sigma-Aldrich, cat. H4001), 9.7 ng/mL human EGF recombinant protein (Invitrogen, cat. PHG0313), 23.4 microg/mL adenine (Sigma-Aldrich, cat. A2786), 97.3 U/mL penicillin-streptomycin (Invitrogen, cat. 15140122), 1.9 mM L-glutamine (Invitrogen, cat. 25030081), and 9.7 microM Y-27632 dihydrochloride (Tocris Bioscience, Bristol, United Kingdom, cat. 1254). The PDCs were cultured in complete DMEM/F12 media without 10 microM Y-27632 dihydrochloride for at least two passages prior to the screen. The established cell lines NCI-H1341 and […] were cultured in DMEM/F-12, HEPES (Invitrogen, cat. 11330032), 5% defined fetal bovine serum (HyClone Laboratories Inc., cat. SH30070.03), ITS premix universal culture supplement [insulin (5 microg/mL), transferrin (5 microg/mL), and selenious acid (5 ng/mL)] […]

[1] = second compound 0.1 µM, first compound 0.0316 µM
[2] = second compound 0.1 µM, first compound 0.1 µM
[3] = second compound 0.1 µM, first compound 0.316 µM
[4] = second compound 0.1 µM, first compound 1 µM
[5] = second compound 0.1 µM, first compound 3.16 µM
[6] = second compound 0.1 µM, first compound 10 µM
[7] = second compound 0.316 µM, first compound 0.0316 µM
[8] = second compound 0.316 µM, first compound 0.1 µM
[9] = second compound 0.316 µM, first compound 0.316 µM
[10] = second compound 0.316 µM, first compound 1 µM
[11] = second compound 0.316 µM, first compound 3.16 µM
[12] = second compound 0.316 µM, first compound 10 µM
[13] = second compound 1 µM, first compound 0.0316 µM
[14] = second compound 1 µM, first compound 0.1 µM
[15] = second compound 1 µM, first compound 0.316 µM
[16] = second compound 1 µM, first compound 1 µM
[17] = second compound 1 µM, first compound 3.16 µM
[18] = second compound 1 µM, first compound 10 µM
[19] = second compound 3.16 µM, first compound 0.0316 µM
[20] = second compound 3.16 µM, first compound 0.1 µM
[21] = second compound 3.16 µM, first compound 0.316 µM
[22] = second compound 3.16 µM, first compound 1 µM
[23] = second compound 3.16 µM, first compound 3.16 µM
[24] = second compound 3.16 µM, first compound 10 µM
[25] = second compound 10 µM, first compound 0.0316 µM
[26] = second compound 10 µM, first compound 0.1 µM
[27] = second compound 10 µM, first compound 0.316 µM
[28] = second compound 10 µM, first compound 1 µM
[29] = second compound 10 µM, first compound 3.16 µM
[30] = second compound 10 µM, first compound 10 µM
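Note: spheroids exposed to agents for seven days before luminescence viability read.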
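Throughout, for viability, T/C: spheroids also contain HUVEC endothelial cells and human MSC stroma.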

pIC50 (second compound 0.1 µM): > 9.02
pIC50 (second compound 0.316 µM): > 9.02
pIC50 (second compound 1 µM): > 9.02
pIC50 (second compound 3.16 µM): > 9.02
pIC50 (second compound 10 µM): > 9.02
Compound: CC(C)CC(NC(=O)C(Cc1ccccc1)NC(=O)c1cnccn1)B(O)O (stereo not given) + CC(CO)NC(=O)c1cc(-c2ccc(Cl)cc2)nn(-c2cnn(C)c2)c1=O
viability, T/C (second compound 0.1 µM, first compound 0.000949 µM): 23.1%
viability, T/C (second compound 0.1 µM, first compound 0.003 µM): 6.06%
viability, T/C (second compound 0.1 µM, first compound 0.00949 µM): 3.66%
viability, T/C (second compound 0.1 µM, first compound 0.03 µM): 2.47%
viability, T/C (second compound 0.1 µM, first compound 0.0949 µM): 2.75%
viability, T/C (second compound 0.1 µM, first compound 0.3 µM): 1.27%
viability, T/C (second compound 0.316 µM, first compound 0.000949 µM): 24.2%
viability, T/C (second compound 0.316 µM, first compound 0.003 µM): 6.19%
viability, T/C (second compound 0.316 µM, first compound 0.00949 µM): 4.09%
viability, T/C (second compound 0.316 µM, first compound 0.03 µM): 1.94%
viability, T/C (second compound 0.316 µM, first compound 0.0949 µM): 2.38%
viability, T/C (second compound 0.316 µM, first compound 0.3 µM): 1.96%
viability, T/C (second compound 1 µM, first compound 0.000949 µM): 22.5%
viability, T/C (second compound 1 µM, first compound 0.003 µM): 5.68%
viability, T/C (second compound 1 µM, first compound 0.00949 µM): 2.71%
viability, T/C (second compound 1 µM, first compound 0.03 µM): 2.61%
viability, T/C (second compound 1 µM, first compound 0.0949 µM): 1.69%
viability, T/C (second compound 1 µM, first compound 0.3 µM): 1.84%
viability, T/C (second compound 3.16 µM, first compound 0.000949 µM): 21.1%
viability, T/C (second compound 3.16 µM, first compound 0.003 µM): 6.77%
viability, T/C (second compound 3.16 µM, first compound 0.00949 µM): 2.56%
viability, T/C (second compound 3.16 µM, first compound 0.03 µM): 1.42%
viability, T/C (second compound 3.16 µM, first compound 0.0949 µM): 1.44%
viability, T/C (second compound 3.16 µM, first compound 0.3 µM): 1.95%
viability, T/C (second compound 10 µM, first compound 0.000949 µM): 23.2%
viability, T/C (second compound 10 µM, first compound 0.003 µM): 6.76%
viability, T/C (second compound 10 µM, first compound 0.00949 µM): 2.77%
viability, T/C (second compound 10 µM, first compound 0.03 µM): 1.65%
viability, T/C (second compound 10 µM, first compound 0.0949 µM): 1.33%
viability, T/C (second compound 10 µM, first compound 0.3 µM): 1.68%

pIC50 (second compound 0.1 µM): 6.06
pIC50 (second compound 0.316 µM): 5.98
pIC50 (second compound 1 µM): 5.97
pIC50 (second compound 3.16 µM): 6.00
pIC50 (second compound 10 µM): 6.36
Compound: Nc1ccccc1NC(=O)c1ccc(CNC(=O)OCc2cccnc2)cc1 + CC(CO)NC(=O)c1cc(-c2ccc(Cl)cc2)nn(-c2cnn(C)c2)c1=O
viability, T/C [1]: 82.8%
viability, T/C [2]: 110%
viability, T/C [3]: 73.4%
viability, T/C [4]: 45.7%
viability, T/C [5]: 23.3%
viability, T/C [6]: 7.92%
viability, T/C [7]: 114%
viability, T/C [8]: 98.5%
viability, T/C [9]: 81.7%
viability, T/C [10]: 51.4%
viability, T/C [11]: 22.7%
viability, T/C [12]: 6.83%
viability, T/C [13]: 104%
viability, T/C [14]: 104%
viability, T/C [15]: 80.9%
viability, T/C [16]: 50.8%
viability, T/C [17]: 23.9%
viability, T/C [18]: 7.01%
viability, T/C [19]: 79.5%
viability, T/C [20]: 104%
viability, T/C [21]: 65.4%
viability, T/C [22]: 52.9%
viability, T/C [23]: 22.1%
viability, T/C [24]: 7.39%
viability, T/C [25]: 54.1%
viability, T/C [26]: 68.4%
viability, T/C [27]: 50.7%
viability, T/C [28]: 39.8%
viability, T/C [29]: 18.8%
viability, T/C [30]: 5.36%

pIC50 (second compound 0.1 µM): 6.24
pIC50 (second compound 0.316 µM): 6.21
pIC50 (second compound 1 µM): 6.20
pIC50 (second compound 3.16 µM): 6.25
pIC50 (second compound 10 µM): 6.35
Compound: O=C(C=Cc1cccc(S(=O)(=O)Nc2ccccc2)c1)NO + CC(CO)NC(=O)c1cc(-c2ccc(Cl)cc2)nn(-c2cnn(C)c2)c1=O
viability, T/C [1]: 85.8%
viability, T/C [2]: 94%
viability, T/C [3]: 69.8%
viability, T/C [4]: 30%
viability, T/C [5]: 8.25%
viability, T/C [6]: 1.75%
viability, T/C [7]: 110%
viability, T/C [8]: 101%
viability, T/C [9]: 75.5%
viability, T/C [10]: 31.5%
viability, T/C [11]: 7.87%
viability, T/C [12]: 1.86%
viability, T/C [13]: 99.8%
viability, T/C [14]: 109%
viability, T/C [15]: 77%
viability, T/C [16]: 31.8%
viability, T/C [17]: 8.85%
viability, T/C [18]: 1.91%
viability, T/C [19]: 90.7%
viability, T/C [20]: 102%
viability, T/C [21]: 68.4%
viability, T/C [22]: 30.1%
viability, T/C [23]: 7.44%
viability, T/C [24]: 1.82%
viability, T/C [25]: 72.7%
viability, T/C [26]: 82.5%
viability, T/C [27]: 53.6%
viability, T/C [28]: 32.1%
viability, T/C [29]: 7.16%
viability, T/C [30]: 1.98%
